Converted amounts (≈) assume the structure as drawn.
Tests used:
[1] = biological target: Bromodomain-containing protein 4 (Homo sapiens, UniProt O60885, Y97A); test: Inhibition of 6His-Thr-BRD4 (1 to 477 residues) BD1 Y97A mutant (unknown origin) incubated for 30 mins by TR-FRET assay
[2] = biological target: Bromodomain-containing protein 4 (Homo sapiens, UniProt O60885, Y390A); test: Inhibition of 6His-Thr-BRD4 (1 to 477 residues) BD2 domain Y390A mutant (unknown origin) incubated for 30 mins by TR-FRET assay
Homo sapiens = organism: Homo sapiens; test: Selectivity index, ratio of pIC50 of BRD4 BD1 (unknown origin) to pIC50 of BRD4 BD2 (unknown origin)
[3] = Solubility of compound by CLND assay; type: physicochemical
[4] = Permeability of compound; type: ADME; details: not told; read-out: permeability

SMILES	IC50 [1] [µM]	IC50 [2] [µM]	Ratio pIC50 (Homo sapiens)	solubility kinetic [3] [µg/mL]	Papp [4] [×10⁻⁶ cm/s]
Cn1cc(-c2cc(C(=O)NCC3CCOCC3)cc(Cc3ccccc3)n2)nn1	> 50.1	0.316	> 160	≥ 142	22
C[C@H](Oc1ccc(C(=O)N[C@H]2CC[C@H](O)CC2)cc1-c1cn(C)nn1)c1ccccn1	7.94	0.398	20	≥ 188	1.3
CCNC(=O)c1ccc(OCc2ncccn2)c(-c2cn(C)nn2)c1	> 50.1	1.58	> 30	≥ 103	3.7
CCNC(=O)c1cc(Cc2ccc(OC)cc2)nc(-c2cn(C)nn2)c1	> 50.1	0.794	> 65	53 (≈ 151 µM)	32
CCNC(=O)c1cc(Cc2ccc(F)cc2)nc(-c2cn(C)nn2)c1	20	0.251	80	75 (≈ 221 µM)	33
CCNC(=O)c1ccc(OCC2CCOCC2)c(-c2cn(C)nn2)c1				≥ 208	11
Cn1cc(-c2cc(C(N)=O)cc(Cc3ccccc3)n2)nn1	12.6	0.251	50	40 (≈ 136 µM)	14
CNC(=O)c1cc(C(=O)NC2CC2)cn(Cc2ccccc2)c1=O [GSK620]				≥ 154	20
CCNC(=O)c1ccc(OCCc2ccccc2)c(-c2cn(C)nn2)c1	> 50.1	2.51	> 20	95 (≈ 271 µM)	49
Cc1cn(-c2ccccc2OCc2ccccc2)nn1	31.6	15.8	2	96 (≈ 362 µM)	
CC(=O)Nc1ccccc1OCc1ccccc1				≥ 113	
Cc1cc(-c2ccccc2OCc2ccccc2)on1	10	3.98	3	1 (≈ 3.77 µM)	
Cc1nnc(-c2ccccc2OCc2ccccc2)o1	> 50.1	12.6	> 4	≥ 252	
Cn1cc(-c2ccccc2OCc2ccccc2)nn1	20	3.98	5	87 (≈ 328 µM)	
Cc1nc(-c2ccccc2OCc2ccccc2)n[nH]1	> 50.1	7.94	> 6	≥ 70	

The remaining compounds from weak to strong by IC50 [2], led by results:

IC50 [1] [µM]	IC50 [2] [µM]	Ratio pIC50 (Homo sapiens)	solubility kinetic [3] [µg/mL]	Papp [4] [×10⁻⁶ cm/s]	SMILES
15.8	0.251	65	73 (≈ 215 µM)	41	CCNC(=O)c1cc(Cc2cccc(F)c2)nc(-c2cn(C)nn2)c1
39.8	0.2	200	62 (≈ 176 µM)	37	CCNC(=O)c1cc(Cc2ccccc2OC)nc(-c2cn(C)nn2)c1
12.6	0.126	100	46 (≈ 137 µM)	4.6	CCNC(=O)c1ccc(OCc2ccccc2)c(-c2cn(C)nn2)c1
10	0.126	80	≥ 138	7	CNC(=O)c1ccc(O[C@@H](C)c2ccccn2)c(-c2cn(C)nn2)c1
	0.126	125	≥ 76	36	Cn1cc(-c2cc(C(=O)NC3CC3)cc(Cc3ccccc3)n2)nn1
	0.1	170	≥ 157	32.5	CCNC(=O)c1cc(Cc2ccccc2)nc(-c2cn(C)nn2)c1
5.01	0.0501	100	≥ 145	24	Cn1cc(-c2cc(C(=O)N[C@H]3[C@@H]4COC[C@@H]43)cc(Cc3ccccc3)n2)nn1
12.6	0.0316	400	≥ 138	1.8	Cn1cc(-c2cc(C(=O)NCC[C@@H]3CNCCO3)cc(Cc3ccccc3)n2)nn1

Source: ChEMBL document CHEMBL4834404, “Template-Hopping Approach Leads to Potent, Selective, and Highly Soluble Bromo and Extraterminal Domain (BET) Second Bromodomain (BD2) Inhibitors” (J Med Chem, 2021)
